# How the values were obtained:
# [1] = tested on: Aβ1-40 and Aβ1-42 levels in hippocampal/entorhinal cortical tissue; experiment: Pilot efficacy testing in PDAPP (J20) AD model mice, Aβ ELISA; assay type: in vivo; conditions: 40 mpk sc daily for 14 days, hippocampus and cortex, 40 mg/kg
# Description: Galangin and progalangin (PG-1) were dissolved in 10% solutol/15% DMSO/75% polyethylene glycol (PEG). Stock solutions were prepared at 10 mg/ml for each compound and 100 ul was injected subcutaneously daily for 14 days at a dose of 40 mkd. There were 5 PDAPP AD model J20 mice in both the galangin and progalangin groups, and 9 vehicle-only treated J20 controls. Mice were anesthetized, blood collected for plasma, and brain tissue collected as described above 2 hours after injection on the last day of treatment. The right hemibrain was further microdissected to isolate hippocampus and entorhinal cortex and this combined tissue was used for biochemical analysis. The remaining tissue and plasma was sent to IAS for compound level analysis.
# Aβ1-42 and Aβ1-40 levels were determined using the hippocampal/entorhinal cortical tissue. Briefly, frozen tissue samples were weighed, and a 20% w/v sonicate prepared in 5M guandine-HCl/50 mM Tris, pH8. Sonication was performed with sample tubes in ice water, 4×5 seconds at 60 Hz, then 3×5 seconds at 80 Hz. Samples were then rotated at room temperature for 3 hours and frozen at −20° C. until assay. Invitrogen ELISA kits were used for Aβ1-40 and Aβ1-42 according to the manufacturer's instructions.
# in vivo = experiment: in vivo; set-up: species or system mice; conditions: mouse; for brain Cmax of galangin: sc, 10 mg/kg
# Description: The brain penetrance of galangin and progalangin were assessed in a standard PK comprising subcutaneous (Sub-Q) injection of 5 adult non-transgenic mice with 50 ul of a 5 mg/ml stock of compound in dimethylsulfoxide (DMSO) or a dose of 10 mg/kg for a 25 g mouse. Injected mice were anesthetized with ketamine/xylazine at 1, 2, 4, 6, and 8 hours and blood collected by cardiac puncture. The mice were then perfused with saline and brain tissue dissected and snap frozen on dry ice. Blood was centrifuged at 3000 rpm for 10 minutes and the plasma supernatant collected. Both plasma and the right hemibrain were sent to Integrated Analytical Solutions (IAS, Berkeley, Calif.) with a reference sample of compound for compound level analysis in tissue and plasma. The compound levels were determined using a LC-MS/MS approach.
# CNS exposure studies were performed and consisted of a time-course design to collect heparinized plasma and brains. Following sc administration of the galangin or progalangin (compound-2) at 10 mg/kg, plasma and brain levels of the compounds were determined by quantitative LC/MS/MS methodology. Plasma samples were precipitated with acetonitrile:methanol (1:1) cocktail containing an internal standard. The brain samples were homogenized directly in ethylacetate or extracted from 5M guanidine homogenates with the liquid-liquid method. The resulting supernatant was evaporated to dryness and subjected to the LC/MS/MS analysis. For each compound 5 mice were used for the analysis. The brain-to-plasma ratios and plasma/brain Cmax levels were then determined (see, e.g., FIG. 8).
# [2] = tested on: APLP2-Gal4 transactivation in HEK293T cells; experiment: APLP2-Gal4/Mint3/TAZ transactivation assay; assay type: cell-based; conditions: Mint3 and TAZ present; galangin at 10 μM
# Excerpt: (§1) FIGS. 7A and 7B illustrate inhibition of APP-Gal4 and APLP2-Gal4 transactivation by galangin. […] This transactivation was inhibited by Galangin and BACE inhibitor IV. FIG. 7B: Potent transactivation of transcription was also achieved with APLP2 fused to the Gal4 DNA binding domain when both Mint3 and TAZ were present. This transactivation was inhibited by Galangin and BACE inhibitor IV. […] The normalized luciferase activity is expressed as a percentage of the DMSO treated control (FIGS. 7A, 7B). Error bars indicate SEM. (*, p<0.05; **, p<0.01; ***, p<0.001; n=3, student t test).
# (§2) This assay system is described by Orcholski et al. (2011) J. Alzheimers Dis., 23(4):689-699. Transactivation is achieved upon transfection with Mint3 and Taz. The ASBI was expected to inhibit only the transactivation of APP-Gal4, not that of APLP2-Gal4. For these experiments cells were co-transfected with a Gal4-luciferase reporter plasmid (to measure transactivation), a beta-galactosidase plasmid (to normalize for transfection efficiency), and the test plasmids identified. The normalized luciferase activity was expressed as fold induction over transcription by APP-Gal4 alone (FIG. 7A), or as fold induction over APLP2-Gal4 alone (FIG. 7B).
# (§3) HEK293T cells were co-transfected with five plasmids: (1) pG5E1B-luc, 0.3 μg; (2) pCMV-LacZ, 0.1 μg; (3) pMst-APP (APP-Gal4) or pcDNA3.1-APLP2-Gal4, 0.3 μg; (4) pCMV5-Mint3, 1.0 μg; (5) pEF-N-FLAG-TAZ, 1.0 μg. Cells were harvested 48 hr after transfection in 0.2 ml per well Cell Culture Lysis Buffer (Promega), and their luciferase and β-galactosidase activities were determined with the Promega luciferase assay kit and the Promega β-galactosidase assay kit, respectively. The luciferase activity was standardized by the β-galactosidase activity to control for transfection efficiency and general effects on transcription. Transfections were performed at 80-90% cofluency in six-well plates using Lipofectamine 2000 (Invitrogen).
# [3] = tested on: APP-Gal4 transactivation in HEK293T cells; experiment: APP-Gal4/Mint3/TAZ transactivation assay; assay type: cell-based; conditions: Mint3 and TAZ present; galangin at 10 μM
# Excerpt: as §1, §2, §3
Compound,Aβ1-40 (Aβ40) levels in brain [1],Aβ1-42 (Aβ42) levels in brain [1],Aβ1-40 (Aβ40) levels in brain ([1]; listed as pro-galangin I),Aβ1-42 (Aβ42) levels in brain ([1]; listed as pro-galangin I),Aβ1-40 (Aβ40) levels in brain ([1]; listed as progalangin),Aβ1-42 (Aβ42) levels in brain ([1]; listed as progalangin),galangin levels after PG-1 injection versus galangin itself (in vivo),plasma levels versus brain tissue levels (in vivo),brain Cmax of galangin (in vivo),APLP2-Gal4 transactivation [2],APP-Gal4 transactivation [3],brain penetration (in vivo)
"CC(=O)Oc1cc(OC(C)=O)c2c(=O)c(O)c(-c3ccccc3)oc2c1 [PG-1, 5,7-Diacetoxy-3-hydroxyflavone]",more effective in vivo than galangin,more effective in vivo than galangin,slightly lowered,slightly lowered,reduction,reduction,much higher,Plasma levels were greater than brain tissue levels,~100 ng/g,,,
BACE inhibitor IV [reference compound],,,,,,,,,,inhibited,inhibited,
C[C@@H]1O[C@@H](OC[C@H]2O[C@@H](Oc3c(-c4ccc(O)c(O)c4)oc4cc(O)cc(O)c4c3=O)[C@H](O)[C@@H](O)[C@@H]2O)[C@H](O)[C@H](O)[C@H]1O [Rutin],,,,,,,,,no rutin was detectable in the brain,,,does not cross the blood-brain barrier

# — patent publication USRE49873E1, “APP specific bace inhibitors (ASBIs) and uses thereof” (BUCK INSTITUTE FOR RESEARCH ON AGING, priority 2012, dated 2024)
